{"source": "patent US20260184691A1", "about": "“INHIBITORS AND DEGRADERS OF PIP4K PROTEIN” (Larkspur Biosciences, Inc., priority 2022, published 2026)"}
{"target": "T1, endogenous PIP4K2C C-terminally tagged with HiBiT peptide in MOLT-4 cells (Homo sapiens, UniProt Q8TBX8)", "T1 construct": "to C-terminally tag endogenous PIP4K2C with HiBiT peptide; host or cells: MOLT-4 (CRISPR-Cas9 knock-in clone)", "T1 sequence (Q8TBX8 1-421)": "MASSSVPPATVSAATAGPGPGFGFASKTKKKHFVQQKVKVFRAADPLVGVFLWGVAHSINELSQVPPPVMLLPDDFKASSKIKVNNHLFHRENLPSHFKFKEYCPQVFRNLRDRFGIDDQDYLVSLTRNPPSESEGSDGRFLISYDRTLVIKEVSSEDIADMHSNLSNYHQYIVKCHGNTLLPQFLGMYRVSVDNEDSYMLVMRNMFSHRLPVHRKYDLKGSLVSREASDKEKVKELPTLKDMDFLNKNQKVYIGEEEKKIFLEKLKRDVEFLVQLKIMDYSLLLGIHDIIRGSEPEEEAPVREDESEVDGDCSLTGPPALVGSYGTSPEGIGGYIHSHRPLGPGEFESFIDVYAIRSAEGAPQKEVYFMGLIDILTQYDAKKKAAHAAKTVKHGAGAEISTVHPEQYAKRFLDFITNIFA", "assay": "HiBiT PIP4K2C degradation assay in MOLT-4 cells", "type": "cell-based", "details": "24 hours, 10-point dose response, top concentration 10 micromolar, read-out: HiBIT-degradation MOLT4 PIP4k2C 24 hours DC50", "method": "Following clonal selection, genotype was confirmed by Sanger sequencing. […] Nano-Glo® HiBiT Lytic Assay System was purchased from Promega (Madison, WI, Catalog number N3030). Cell culture flasks and 384-well microplates were purchased from Corning (Glendale, AZ).\nTo study PIP4K2C degradation, 384-well plates were plated with a 10-point dose response curve, 3-fold dilution, in duplicate with a top starting concentration of 10 micromolar. Subsequently 22,500 cells were added to each well and incubated at 37C in 5% CO2 for 24 hours. At the end of the incubation time, cells were treated with the Nano-Glo® HiBiT Lytic Detection System following the manufacturer's instructions. Luminescence was measured with a PHERAstar FSX plate reader (BMG Labtech, Cary, NC). The Levenberg-Marquardt algorithm was used to fit a Hill equation to dose-response data to calculate DC50 values (see Table 6).", "units": {"DC50": "nM"}}
{"smiles": "O=C1CCC(Nc2ccc(N3CCC(N4CCN(CCC(=O)Nc5cncc(Nc6ncc(Cl)c(-c7cccc(-c8ccccc8)c7)n6)c5)CC4)CC3)cc2)C(=O)N1", "note": "(stereo not drawn) [Compound 183, N-(5-((4-([1,1′-biphenyl]-3-yl)-5-chloropyrimidin-2-yl)amino)pyridin-3-yl)-3-(4-(1-(4-((2,6-dioxopiperidin-3-yl)amino)phenyl)piperidin-4-yl)piperazin-1-yl)propanamide]", "DC50": "< 500"}
{"smiles": "O=C1CCC(Nc2ccc(N3CCC(CC(=O)N4CCC5(CC4)CCN(c4cncc(Nc6ncc(Cl)c(N7CCCCC7)n6)c4)C5=O)CC3)cc2)C(=O)N1", "note": "(stereo not drawn) [Compound 168, 3-((4-(4-(2-(2-(5-((5-chloro-4-(piperidin-1-yl)pyrimidin-2-yl)amino)pyridin-3-yl)-1-oxo-2,8-diazaspiro[4.5]decan-8-yl)-2-oxoethyl)piperidin-1-yl)phenyl)amino)piperidine-2,6-dione]", "DC50": "< 500"}
{"smiles": "O=C1CCC(Nc2ccc(C3CCN(CC(=O)N4CCC5(CC4)CCN(c4cncc(Nc6ncc(Cl)c(N7CCC[C@H](O)C7)n6)c4)C5=O)CC3)cc2)C(=O)N1", "note": "(stereo partly drawn) [Compound 169, 3-((4-(1-(2-(2-(5-((5-chloro-4-((S)-3-hydroxypiperidin-1-yl)pyrimidin-2-yl)amino)pyridin-3-yl)-1-oxo-2,8-diazaspiro[4.5]decan-8-yl)-2-oxoethyl)piperidin-4-yl)phenyl)amino)piperidine-2,6-dione]", "DC50": "< 500"}
{"smiles": "O=C1CCC(N2Cc3cc(C4CCN(C(=O)CN5CCC(C(=O)Nc6cncc(Nc7ncc(Cl)c(-c8cccc(C9CC9)c8)n7)c6)CC5)CC4)ccc3C2=O)C(=O)N1", "note": "(stereo not drawn) [Compound 196, N-(5-((5-chloro-4-(3-cyclopropylphenyl)pyrimidin-2-yl)amino)pyridin-3-yl)-1-(2-(4-(2-(2,6-dioxopiperidin-3-yl)-1-oxoisoindolin-5-yl)piperidin-1-yl)-2-oxoethyl)piperidine-4-carboxamide]", "DC50": "< 500"}
{"smiles": "O=C1CCC(N2Cc3cc(NCCCCC(=O)N4CCC5(CC4)CCN(c4cncc(Nc6ncc(Cl)c(-c7cccc(-c8ccccc8)c7)n6)c4)C5=O)ccc3C2=O)C(=O)N1", "note": "(stereo not drawn) [Compound 84, 3-(5-((5-(2-(5-((4-([1,1′-biphenyl]-3-yl)-5-chloropyrimidin-2-yl)amino)pyridin-3-yl)-1-oxo-2,8-diazaspiro[4.5]decan-8-yl)-5-oxopentyl)amino)-1-oxoisoindolin-2-yl)piperidine-2,6-dione]", "DC50": "< 500"}
{"smiles": "O=C1CCC(N2Cc3cc(OCCCCCCC(=O)N4CCC5(CC4)CC(=O)N(c4cncc(Nc6ncc(Cl)c(-c7cccc(-c8ccccc8)c7)n6)c4)C5)ccc3C2=O)C(=O)N1", "note": "(stereo not drawn) [Compound 166, 3-(5-((7-(2-(5-((4-([1,1′-biphenyl]-3-yl)-5-chloropyrimidin-2-yl)amino)pyridin-3-yl)-3-oxo-2,8-diazaspiro[4.5]decan-8-yl)-7-oxoheptyl)oxy)-1-oxoisoindolin-2-yl)piperidine-2,6-dione]", "DC50": "< 500"}
{"smiles": "O=C(COc1cccc2c1C(=O)N(C1CCC(=O)NC1=O)C2=O)NCCCCCCCC(=O)N1CCC2(CC1)CCN(c1cncc(Nc3ncc(Cl)c(-c4cccc(-c5ccccc5)c4)n3)c1)C2=O", "note": "(stereo not drawn) [Compound 77, N-(8-(2-(5-((4-([1,1′-biphenyl]-3-yl)-5-chloropyrimidin-2-yl)amino)pyridin-3-yl)-1-oxo-2,8-diazaspiro[4.5]decan-8-yl)-8-oxooctyl)-2-((2-(2,6-dioxopiperidin-3-yl)-1,3-dioxoisoindolin-4-yl)oxy)acetamide]", "DC50": "< 500"}
{"smiles": "O=C1CCC(N2Cc3cc(OCCCCCCCCCCN4CCC5(CC4)CCN(c4cncc(Nc6ncc(Cl)c(-c7cccc(-c8ccccc8)c7)n6)c4)C5=O)ccc3C2=O)C(=O)N1", "note": "(stereo not drawn) [Compound 52, 3-(5-((10-(2-(5-((4-([1,1′-biphenyl]-3-yl)-5-chloropyrimidin-2-yl)amino)pyridin-3-yl)-1-oxo-2,8-diazaspiro[4.5]decan-8-yl)decyl)oxy)-1-oxoisoindolin-2-yl)piperidine-2,6-dione]", "DC50": "500 to 1000"}
{"smiles": "O=C1CCC(Nc2ccc(C3CCN(CC(=O)N4CCC5(CC4)CCN(c4cncc(Nc6ncc(Cl)c(-c7cccc(N8CCC8)c7)n6)c4)C5=O)CC3)cc2)C(=O)N1", "note": "(stereo not drawn) [Compound 188, 3-((4-(1-(2-(2-(5-((4-(3-(azetidin-1-yl)phenyl)-5-chloropyrimidin-2-yl)amino)pyridin-3-yl)-1-oxo-2,8-diazaspiro[4.5]decan-8-yl)-2-oxoethyl)piperidin-4-yl)phenyl)amino)piperidine-2,6-dione]", "DC50": "< 500"}
{"smiles": "O=C1CCC(N2C(=O)c3cccc(OCCCN4CCN(CCCCCCCC(=O)Nc5cncc(Nc6ncc(Cl)c(-c7cccc(-c8ccccc8)c7)n6)c5)CC4)c3C2=O)C(=O)N1", "note": "(stereo not drawn) [Compound 67, N-(5-((4-([1,1′-biphenyl]-3-yl)-5-chloropyrimidin-2-yl)amino)pyridin-3-yl)-8-(4-(3-((2-(2,6-dioxopiperidin-3-yl)-1,3-dioxoisoindolin-4-yl)oxy)propyl)piperazin-1-yl)octanamide]", "DC50": "< 500"}
{"smiles": "O=C1CCC(N2Cc3cc(C4CCN(CC(=O)N5CCC(C(=O)Nc6cncc(Nc7ncc(Cl)c(-c8cccc(C9CC9)c8)n7)c6)CC5)CC4)ccc3C2=O)C(=O)N1", "note": "(stereo not drawn) [Compound 203, N-(5-((5-chloro-4-(3-cyclopropylphenyl)pyrimidin-2-yl)amino)pyridin-3-yl)-1-(2-(4-(2-(2,6-dioxopiperidin-3-yl)-1-oxoisoindolin-5-yl)piperidin-1-yl)acetyl)piperidine-4-carboxamide]", "DC50": "< 500"}
{"smiles": "O=C1CCC(Nc2ccc(N3CCC(CN4CCC(C(=O)Nc5cncc(Nc6ncc(Cl)c(-c7cccc(-c8ccccc8)c7)n6)c5)CC4)CC3)cc2)C(=O)N1", "note": "(stereo not drawn) [Compound 187, N-(5-((4-([1,1′-biphenyl]-3-yl)-5-chloropyrimidin-2-yl)amino)pyridin-3-yl)-1-((1-(4-((2,6-dioxopiperidin-3-yl)amino)phenyl)piperidin-4-yl)methyl)piperidine-4-carboxamide]", "DC50": "< 500"}
{"smiles": "O=C1CCC(Nc2ccc(N3CCC(CCN4CCC5(CC4)CCN(c4cncc(Nc6ncc(Cl)c(N7CCCCC7)n6)c4)C5=O)CC3)cc2)C(=O)N1", "note": "(stereo not drawn) [Compound 173, 3-((4-(4-(2-(2-(5-((5-chloro-4-(piperidin-1-yl)pyrimidin-2-yl)amino)pyridin-3-yl)-1-oxo-2,8-diazaspiro[4.5]decan-8-yl)ethyl)piperidin-1-yl)phenyl)amino)piperidine-2,6-dione]", "DC50": "< 500"}
{"smiles": "O=C1CCC(Nc2ccc(N3CCC(CC(=O)N4CCC5(CC4)CCN(c4cncc(Nc6ncc(Cl)c(N7CCC[C@H](C(F)(F)F)C7)n6)c4)C5=O)CC3)cc2)C(=O)N1", "note": "(stereo partly drawn) [Compound 178, 3-((4-(4-(2-(2-(5-((5-chloro-4-((S)-3-(trifluoromethyl)piperidin-1-yl)pyrimidin-2-yl)amino)pyridin-3-yl)-1-oxo-2,8-diazaspiro[4.5]decan-8-yl)-2-oxoethyl)piperidin-1-yl)phenyl)amino)piperidine-2,6-dione]", "DC50": "< 500"}
{"smiles": "O=C1CCC(N2Cc3cc(OC4CCN(C(=O)CN5CCC6(CC5)CCN(c5cncc(Nc7ncc(Cl)c(-c8cccc(C9CC9)c8)n7)c5)C6=O)CC4)ccc3C2=O)C(=O)N1", "note": "(stereo not drawn) [Compound 199, 3-(5-((1-(2-(2-(5-((5-chloro-4-(3-cyclopropylphenyl)pyrimidin-2-yl)amino)pyridin-3-yl)-1-oxo-2,8-diazaspiro[4.5]decan-8-yl)acetyl)piperidin-4-yl)oxy)-1-oxoisoindolin-2-yl)piperidine-2,6-dione]", "DC50": "< 500"}
{"smiles": "O=C1CCC(Nc2ccc(N3CCC(CC(=O)N4CCC5(CC4)CCN(c4cncc(Nc6ncc(Cl)c(N7CCC[C@H](O)C7)n6)c4)C5=O)CC3)cc2)C(=O)N1", "note": "(stereo partly drawn) [Compound 175, 3-((4-(4-(2-(2-(5-((5-chloro-4-((S)-3-hydroxypiperidin-1-yl)pyrimidin-2-yl)amino)pyridin-3-yl)-1-oxo-2,8-diazaspiro[4.5]decan-8-yl)-2-oxoethyl)piperidin-1-yl)phenyl)amino)piperidine-2,6-dione]", "DC50": "< 500"}
{"smiles": "O=C1CCC(N2Cc3cc(OCCCCCCCN4CCC5(CC4)CCN(c4cncc(Nc6ncc(Cl)c(-c7cccc(-c8ccccc8)c7)n6)c4)C5=O)ccc3C2=O)C(=O)N1", "note": "(stereo not drawn) [Compound 54, 3-(5-((7-(2-(5-((4-([1,1′-biphenyl]-3-yl)-5-chloropyrimidin-2-yl)amino)pyridin-3-yl)-1-oxo-2,8-diazaspiro[4.5]decan-8-yl)heptyl)oxy)-1-oxoisoindolin-2-yl)piperidine-2,6-dione]", "DC50": "< 500"}
{"smiles": "O=C1CCC(Nc2ccc(N3CCC(CC(=O)N4CCC5(CC4)CCN(c4cncc(Nc6ncc(Cl)c(N7CCOC(c8ccccc8)C7)n6)c4)C5=O)CC3)cc2)C(=O)N1", "note": "(stereo not drawn) [Compound 181, 3-((4-(4-(2-(2-(5-((5-chloro-4-(2-phenylmorpholino)pyrimidin-2-yl)amino)pyridin-3-yl)-1-oxo-2,8-diazaspiro[4.5]decan-8-yl)-2-oxoethyl)piperidin-1-yl)phenyl)amino)piperidine-2,6-dione]", "DC50": "< 500"}
